# Assay results as given in ChEMBL document CHEMBL1201862, “PubChem BioAssay data set” (2004).
#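 How tested: cells in 96-well plates exposed to compound for 48 hours at five concentrations. The concentration for 50% growth inhibition is given as GI50.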 Active and inactive are the calls of the source. No stated cut-off is given here; in the data, active = GI50 up to about 1.1 µM and inactive = higher.
# How the values were obtained:
# Test in all cases: NCI tumour cell line growth inhibition, 48 h
# NCI-H522 = system: NCI-H522
# NCI/ADR-RES = system: NCI/ADR-RES
# HOP-62 = system: HOP-62
# UO-31 = system: UO-31
# Hs-578T = system: Hs-578T
# SK-MEL-2 = system: SK-MEL-2
# SK-MEL-5 = system: SK-MEL-5
# EKVX = system: EKVX
# SF-539 = system: SF-539
# OVCAR-4 = system: OVCAR-4
# OVCAR-8 = system: OVCAR-8
# TK-10 = system: TK-10
# OVCAR-3 = system: OVCAR-3
# NCI-H23 = system: NCI-H23
# Malme-3M = system: Malme-3M
# DU-145 = system: DU-145
# CCRF-CEM = system: CCRF-CEM
# SW-620 = system: SW-620
# SNB-75 = system: SNB-75
# SK-OV-3 = system: SK-OV-3
Structure (SMILES),GI50 (NCI-H522),GI50 (NCI/ADR-RES),GI50 (HOP-62),GI50 (UO-31),GI50 (Hs-578T),GI50 (SK-MEL-2),GI50 (SK-MEL-5),GI50 (EKVX),GI50 (SF-539),GI50 (OVCAR-4),GI50 (OVCAR-8),GI50 (TK-10),GI50 (OVCAR-3),GI50 (NCI-H23),GI50 (Malme-3M),GI50 (DU-145),GI50 (CCRF-CEM),GI50 (SW-620),GI50 (SNB-75),GI50 (SK-OV-3)
Cc1cc(Cl)nc2nc(Cl)c(N)cc12,4.53 µM (inactive),14.8 µM (inactive),6.76 µM (inactive),3.92 µM (inactive),10.4 µM (inactive),14.9 µM (inactive),10.9 µM (inactive),3.48 µM (inactive),4.71 µM (inactive),2.64 µM (inactive),2.67 µM (inactive),6.58 µM (inactive),1.87 µM (inactive),7.24 µM (inactive),9.53 µM (inactive),7.03 µM (inactive),1.67 µM (inactive),2.04 µM (inactive),10.6 µM (inactive),21.3 µM (inactive)
CC(C)c1ccc2c(c1)CCC1C(C)(CN)CCCC21C (stereo not given),1.79 µM (inactive),1.64 µM (inactive),1.75 µM (inactive),1.39 µM (inactive),1.63 µM (inactive),1.73 µM (inactive),1.8 µM (inactive),1.86 µM (inactive),1.79 µM (inactive),1.61 µM (inactive),1.73 µM (inactive),1.7 µM (inactive),1.7 µM (inactive),1.7 µM (inactive),1.43 µM (inactive),1.77 µM (inactive),1.55 µM (inactive),1.29 µM (inactive),1.94 µM (inactive),2.11 µM (inactive)
COC(=O)c1ccccc1OCc1cc(=O)oc2ccc(C)cc12,14.8 µM (inactive),64.7 µM (inactive),20 µM (inactive),> 100 µM (inactive),27.3 µM (inactive),> 42.6 µM (inactive),> 100 µM (inactive),> 100 µM (inactive),20.2 µM (inactive),20 µM (inactive),39.3 µM (inactive),58.7 µM (inactive),29.4 µM (inactive),> 100 µM (inactive),> 100 µM (inactive),> 100 µM (inactive),> 100 µM (inactive),> 65.8 µM (inactive),16.2 µM (inactive),63.8 µM (inactive)
Cc1ccc(S(=O)(=O)NC(=O)Nc2cc(Cl)c(S(N)(=O)=O)cc2S(N)(=O)=O)cc1,> 100 µM (inactive),> 100 µM (inactive),> 100 µM (inactive),> 100 µM (inactive),> 100 µM (inactive),> 100 µM (inactive),> 100 µM (inactive),> 100 µM (inactive),58.3 µM (inactive),> 100 µM (inactive),> 100 µM (inactive),> 100 µM (inactive),> 100 µM (inactive),> 100 µM (inactive),> 100 µM (inactive),> 100 µM (inactive),> 100 µM (inactive),> 100 µM (inactive),> 100 µM (inactive),> 100 µM (inactive)
CC(C)(C)OC(=O)NCC(c1c[nH]c2cc(Br)ccc12)c1c[nH]c2cc(Br)ccc12,17.3 µM (inactive),17.7 µM (inactive),17.4 µM (inactive),17.5 µM (inactive),19.8 µM (inactive),18.4 µM (inactive),17.3 µM (inactive),16.2 µM (inactive),20.2 µM (inactive),16.7 µM (inactive),18.3 µM (inactive),19.7 µM (inactive),15.7 µM (inactive),18.2 µM (inactive),17.2 µM (inactive),17.7 µM (inactive),62.1 µM (inactive),28.9 µM (inactive),21.9 µM (inactive),15.8 µM (inactive)
O=C(O)C1(CC(CCCN2CCCCC2)c2ccccc2)CCCC1 (stereo not given),> 100 µM (inactive),> 100 µM (inactive),> 100 µM (inactive),> 100 µM (inactive),> 100 µM (inactive),> 100 µM (inactive),> 100 µM (inactive),> 100 µM (inactive),> 100 µM (inactive),> 100 µM (inactive),> 100 µM (inactive),> 100 µM (inactive),41.8 µM (inactive),> 100 µM (inactive),> 100 µM (inactive),> 100 µM (inactive),> 100 µM (inactive),> 100 µM (inactive),> 100 µM (inactive),> 100 µM (inactive)
O=P1(C(O)c2ccccc2)N(Cc2ccccc2)[C@@H]2CCCC[C@H]2N1Cc1ccccc1 (stereo not given in full),20.7 µM (inactive),26.3 µM (inactive),40.8 µM (inactive),33 µM (inactive),20 µM (inactive),27 µM (inactive),30.3 µM (inactive),30.5 µM (inactive),21.5 µM (inactive),12.3 µM (inactive),31 µM (inactive),30.3 µM (inactive),31.2 µM (inactive),47.9 µM (inactive),30.7 µM (inactive),35 µM (inactive),34.8 µM (inactive),33.9 µM (inactive),18.4 µM (inactive),58.2 µM (inactive)
CCCC(=O)NC(NC1CCCCC1)(C(=O)OCC)C(F)(F)F (stereo not given),> 100 µM (inactive),> 100 µM (inactive),> 100 µM (inactive),> 100 µM (inactive),> 100 µM (inactive),> 100 µM (inactive),> 100 µM (inactive),> 100 µM (inactive),> 100 µM (inactive),> 100 µM (inactive),> 100 µM (inactive),> 100 µM (inactive),> 100 µM (inactive),> 100 µM (inactive),> 100 µM (inactive),> 100 µM (inactive),> 100 µM (inactive),> 100 µM (inactive),29.7 µM (inactive),> 100 µM (inactive)
C[C@]12CC[C@H]3[C@@H](CCC4=C[C@@H](N5CCCC5)CC[C@@]43C)[C@@H]1C/C(=C\c1ccncc1)[C@@H]2O,10.3 µM (inactive),17.6 µM (inactive),4.68 µM (inactive),4.92 µM (inactive),13.8 µM (inactive),16.4 µM (inactive),12 µM (inactive),15.7 µM (inactive),9.35 µM (inactive),18 µM (inactive),24.9 µM (inactive),13.2 µM (inactive),16.4 µM (inactive),15.5 µM (inactive),13.6 µM (inactive),15.9 µM (inactive),0.445 µM (active),13.4 µM (inactive),14.3 µM (inactive),18 µM (inactive)
